Experimental data published in patent publication US20240123022A1, “A STABLE ANTI-ANGIOGENIC AND ANTI-INFLAMMATORY PHARMACEUTICAL FORMULATION AND PHARMACEUTICAL COMBINATION FOR TREATMENT AND PREVENTION OF PSORIASIS” (priority 2021, published 2024).
Read-outs that look alike come from different tables or passages of the source.

What was measured:
[1] = molecular target: T1, Topoisomerase II enzyme (Homo sapiens, UniProt P11388); assay: Topoisomerase II inhibition (kinetoplast DNA decatenation, agarose gel); type: biochemical
T1 construct: purchased TopoGen TG2000H-1
T1 sequence (P11388 whole entry): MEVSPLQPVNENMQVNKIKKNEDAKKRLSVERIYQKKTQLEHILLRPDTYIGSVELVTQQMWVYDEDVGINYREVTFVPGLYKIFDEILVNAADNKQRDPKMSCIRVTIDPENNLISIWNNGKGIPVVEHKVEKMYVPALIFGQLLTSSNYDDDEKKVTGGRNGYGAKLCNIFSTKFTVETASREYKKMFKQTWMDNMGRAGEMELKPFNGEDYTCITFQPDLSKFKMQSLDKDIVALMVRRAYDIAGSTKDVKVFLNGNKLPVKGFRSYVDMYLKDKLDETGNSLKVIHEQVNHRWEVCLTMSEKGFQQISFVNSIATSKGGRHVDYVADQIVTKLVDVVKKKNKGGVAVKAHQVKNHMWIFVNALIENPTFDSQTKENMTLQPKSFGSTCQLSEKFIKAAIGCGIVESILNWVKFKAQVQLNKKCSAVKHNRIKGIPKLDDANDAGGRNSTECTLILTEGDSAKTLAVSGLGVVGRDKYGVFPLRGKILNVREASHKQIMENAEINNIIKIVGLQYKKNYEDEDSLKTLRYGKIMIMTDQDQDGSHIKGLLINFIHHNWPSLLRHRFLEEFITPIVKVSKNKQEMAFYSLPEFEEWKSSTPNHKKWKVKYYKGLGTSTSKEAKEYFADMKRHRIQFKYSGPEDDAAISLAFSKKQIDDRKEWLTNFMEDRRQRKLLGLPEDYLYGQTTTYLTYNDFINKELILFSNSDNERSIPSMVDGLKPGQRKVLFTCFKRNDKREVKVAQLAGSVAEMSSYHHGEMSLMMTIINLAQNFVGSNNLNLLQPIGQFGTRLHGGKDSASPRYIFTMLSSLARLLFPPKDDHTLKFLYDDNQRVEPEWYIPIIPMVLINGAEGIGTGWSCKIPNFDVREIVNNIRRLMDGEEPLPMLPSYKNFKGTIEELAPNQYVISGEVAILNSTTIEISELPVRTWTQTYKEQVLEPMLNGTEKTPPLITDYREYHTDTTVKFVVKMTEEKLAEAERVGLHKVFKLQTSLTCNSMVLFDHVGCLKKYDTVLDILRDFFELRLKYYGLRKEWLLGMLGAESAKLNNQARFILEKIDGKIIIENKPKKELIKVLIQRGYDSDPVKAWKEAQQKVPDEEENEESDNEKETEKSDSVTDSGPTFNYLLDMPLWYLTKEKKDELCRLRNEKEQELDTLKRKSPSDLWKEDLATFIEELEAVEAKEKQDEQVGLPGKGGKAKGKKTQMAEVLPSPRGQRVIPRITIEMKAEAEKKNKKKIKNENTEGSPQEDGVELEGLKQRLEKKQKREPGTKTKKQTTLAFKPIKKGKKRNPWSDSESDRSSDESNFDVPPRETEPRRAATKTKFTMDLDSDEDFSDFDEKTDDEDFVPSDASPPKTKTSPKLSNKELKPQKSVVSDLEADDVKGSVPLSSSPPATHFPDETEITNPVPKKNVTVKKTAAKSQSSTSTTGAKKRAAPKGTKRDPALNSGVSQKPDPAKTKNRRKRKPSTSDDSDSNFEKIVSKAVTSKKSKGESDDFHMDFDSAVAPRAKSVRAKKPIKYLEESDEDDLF
Method: Topoisomerase II inhibitory potential of IS217 was evaluated using widely reported kinetoplast DNA as test system in presence of Topoisomerase II enzyme. IS217 was tested at concentrations ranging from 0.01 μg/ml to 1 mg/ml. Doxorubucin hydrochloride and nalidixic acid were used as positive controls at the concentration of 10 μM and 1 mg/ml, respectively.
Inhibition of release of decatenated KDNA products was used as a specific marker to assess the inhibitory activity of IS217 on topoisomerase II enzyme, which was determined by using 1% agarose gel electrophoresis.

[2] = molecular target: T2, CYP1A2 (Homo sapiens, UniProt P05177); assay: in vitro; type: in vitro ADME
T2 construct: purchased
T2 sequence (P05177 whole entry): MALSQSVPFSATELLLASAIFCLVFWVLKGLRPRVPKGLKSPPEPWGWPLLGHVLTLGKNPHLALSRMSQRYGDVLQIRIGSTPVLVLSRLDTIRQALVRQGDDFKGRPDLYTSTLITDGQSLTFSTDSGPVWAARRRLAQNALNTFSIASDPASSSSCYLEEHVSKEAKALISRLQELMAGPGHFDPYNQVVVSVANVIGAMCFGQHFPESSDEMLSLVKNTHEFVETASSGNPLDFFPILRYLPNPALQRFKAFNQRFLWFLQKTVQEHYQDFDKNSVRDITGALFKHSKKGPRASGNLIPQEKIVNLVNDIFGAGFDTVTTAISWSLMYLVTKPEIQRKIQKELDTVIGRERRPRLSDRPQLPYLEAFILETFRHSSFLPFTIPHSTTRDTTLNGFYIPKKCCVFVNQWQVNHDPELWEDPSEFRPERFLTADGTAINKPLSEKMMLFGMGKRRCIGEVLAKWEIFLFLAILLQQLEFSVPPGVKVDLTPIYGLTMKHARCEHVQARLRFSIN
Method: (§1) The study design determined inhibition potential of test item (IS217) for CYP3A4, CYP1A2, CYP2C9, CYP2D6 and CYP2C19 using high throughput inhibitor screening kit. The experiment was performed with concentrations range of 10 μg/mL to 0.005 μg/mL of test compound IS217. Positive controls taken were specific to individual kit, which were taken as follows:
(§2) At the end of incubation period, metabolism of fluorescent substrates to their metabolites was read using fluorescent multiwall spectrophotometer (Biotek reader). Very less (<20% at 10 μg/mL) to no inhibition potential was observed towards enzymes CYP3A4, CYP2C9, CYP2D6, CYP1A2 and CYP2C19.

[3] = molecular target: T3, CYP2C19 (Homo sapiens, UniProt P33261); assay: in vitro; type: in vitro ADME
T3 construct: purchased
T3 sequence (P33261 whole entry): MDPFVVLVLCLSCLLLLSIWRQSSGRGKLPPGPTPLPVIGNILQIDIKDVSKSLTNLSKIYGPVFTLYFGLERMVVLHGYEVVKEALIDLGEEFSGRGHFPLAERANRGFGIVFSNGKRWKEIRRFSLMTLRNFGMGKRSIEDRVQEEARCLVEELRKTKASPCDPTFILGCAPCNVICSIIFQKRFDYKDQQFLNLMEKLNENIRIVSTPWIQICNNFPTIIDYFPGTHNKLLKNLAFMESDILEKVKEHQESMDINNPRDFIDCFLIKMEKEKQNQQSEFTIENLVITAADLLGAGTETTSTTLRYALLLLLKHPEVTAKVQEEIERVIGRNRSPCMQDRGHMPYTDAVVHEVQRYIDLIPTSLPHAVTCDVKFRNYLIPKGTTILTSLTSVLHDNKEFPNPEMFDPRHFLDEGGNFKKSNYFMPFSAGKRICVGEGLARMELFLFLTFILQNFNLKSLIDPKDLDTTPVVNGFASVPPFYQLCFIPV
Method: as §1, §2

[4] = molecular target: T4, CYP2C9 (Homo sapiens, UniProt P11712); assay: in vitro; type: in vitro ADME
T4 construct: purchased
T4 sequence (P11712 whole entry): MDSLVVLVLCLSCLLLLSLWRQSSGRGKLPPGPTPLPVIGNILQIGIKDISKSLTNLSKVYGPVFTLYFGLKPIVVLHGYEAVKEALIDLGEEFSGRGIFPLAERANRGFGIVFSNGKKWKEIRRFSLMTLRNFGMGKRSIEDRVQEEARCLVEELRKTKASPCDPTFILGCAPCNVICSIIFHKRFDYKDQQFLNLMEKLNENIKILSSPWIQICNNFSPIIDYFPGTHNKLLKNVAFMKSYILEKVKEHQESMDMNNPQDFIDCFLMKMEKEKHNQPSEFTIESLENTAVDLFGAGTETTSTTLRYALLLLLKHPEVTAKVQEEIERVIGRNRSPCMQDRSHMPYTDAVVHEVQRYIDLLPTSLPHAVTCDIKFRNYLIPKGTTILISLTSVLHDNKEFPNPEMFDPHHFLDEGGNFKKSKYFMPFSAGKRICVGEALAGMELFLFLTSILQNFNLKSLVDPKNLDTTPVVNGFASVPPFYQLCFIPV
Method: as §1, §2

[5] = molecular target: T5, CYP2D6 (Homo sapiens, UniProt P10635); assay: in vitro; type: in vitro ADME
T5 construct: purchased
T5 sequence (P10635 whole entry): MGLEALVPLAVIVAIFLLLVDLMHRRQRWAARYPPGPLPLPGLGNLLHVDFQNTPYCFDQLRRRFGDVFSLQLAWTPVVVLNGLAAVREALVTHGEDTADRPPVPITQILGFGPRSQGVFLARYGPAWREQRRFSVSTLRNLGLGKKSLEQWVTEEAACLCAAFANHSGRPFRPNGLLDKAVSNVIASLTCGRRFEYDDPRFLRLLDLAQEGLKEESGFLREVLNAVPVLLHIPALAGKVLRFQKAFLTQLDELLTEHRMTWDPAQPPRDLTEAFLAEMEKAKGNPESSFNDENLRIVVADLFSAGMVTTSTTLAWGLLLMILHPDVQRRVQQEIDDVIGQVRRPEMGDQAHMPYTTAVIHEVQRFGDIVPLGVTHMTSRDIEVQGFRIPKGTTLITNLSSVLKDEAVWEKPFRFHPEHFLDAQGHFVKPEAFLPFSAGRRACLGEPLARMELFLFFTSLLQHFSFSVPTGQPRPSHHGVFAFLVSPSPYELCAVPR
Method: as §1, §2

[6] = molecular target: T6, CYP3A4 (Homo sapiens, UniProt P08684); assay: in vitro; type: in vitro ADME
T6 construct: purchased
T6 sequence (P08684 whole entry): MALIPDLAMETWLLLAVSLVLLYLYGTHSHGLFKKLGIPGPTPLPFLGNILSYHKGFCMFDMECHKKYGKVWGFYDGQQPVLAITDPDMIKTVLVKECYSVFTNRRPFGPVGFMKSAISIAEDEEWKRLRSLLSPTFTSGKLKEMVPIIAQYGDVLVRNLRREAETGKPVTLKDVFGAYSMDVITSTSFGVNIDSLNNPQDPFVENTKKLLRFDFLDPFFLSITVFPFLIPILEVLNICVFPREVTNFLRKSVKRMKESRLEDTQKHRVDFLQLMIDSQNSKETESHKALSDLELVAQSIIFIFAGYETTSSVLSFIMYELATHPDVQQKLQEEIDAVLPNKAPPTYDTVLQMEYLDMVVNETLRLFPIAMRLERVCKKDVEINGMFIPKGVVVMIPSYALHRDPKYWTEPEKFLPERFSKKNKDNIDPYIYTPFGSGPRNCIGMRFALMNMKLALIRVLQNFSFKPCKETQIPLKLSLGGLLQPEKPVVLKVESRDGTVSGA
Method: as §1, §2

[7] = test system: Salmonella typhimurium tester strains; assay: Bacterial reverse mutation test; type: cell-based; settings: five tester strains, upto 1000 μg/plate, with and without metabolic activation
Text: 17.1: Bacterial Reverse Mutation Test in Salmonella typhimurium Tester Strains:
This was confirmed by in vivo studies which are mandatory for any drug, as a part of safety toxicological studies.

[8] = test system: TPA induced ear inflammation model in C57BL/6 mice; assay: IS217 alone and in combination with methotrexate and betamethasone in TPA induced ear inflammation model; type: in vivo
Method: The experimental procedure, doses and route of administration were same as IMQ model. Test item IS217 was administered subcutaneously either alone or in combination with standard methotrexate (MTX) and betamethasone (BD) to diseased animals.

[9] = Stability of IS217 API, accelerated condition 5 ± 3° C.; type: physicochemical
Method: The purpose of stability testing is to provide evidence on how the quality of a drug substance or drug product varies with time under the influence of a variety of environmental factors such as temperature, humidity, etc. and to establish a re-test period for the drug substance or a shelf life for the drug product and recommended storage conditions. The study was conducted according to the WHO and Schedule-Y guidelines.
The drug substance is a lyophilized white fluffy powder, and it was filled at sterile condition in glass injection vial which has airlock-rubber capping. This container closure system is the same as or simulates the packaging proposed for storage and distribution.
This study has included testing of those attributes of the drug substance that are susceptible to change during storage and are likely to influence quality, safety and/or efficacy. The testing was covered, as appropriate, the physical and chemical attributes.
The following test attributes have been selected according to above said guidelines. • Appearance; odour; colour; colour of solution (when the drug substance is soluble in solvent); clarity of solution; degradation and assessment of container closure system
The studies were conducted under appropriate storage conditions (with appropriate tolerances) that test drug substance thermal stability and its sensitivity to moisture. The drug substance is intended to store for 24 months. Accordingly, long term stability studies were done for 24 months. The details of the storage conditions have been furnished hereunder.
Name of the product: IS217; Batch size: 200 m·mol; Storage conditions: 5±3° C.

[10] = test system: human plasma proteins; assay: in vitro
Method: Test item at concentration of about 100 μg/ml was incubated with human plasma at 37° C. in water bath for about 1 hour. About 500 μL of test solution was transferred to ultrafiltration devices and centrifuged for about 15 minutes at about 13000 rpm and at 37° C. and analyzed using HPLC method.

[11] = IS217 SC 1.2 mg/kg q.d., 10 days

H-FAKKFAKKFK-OH [IS217, H-Phe-Ala-Lys-Lys-Phe-Ala-Lys-Lys-Phe-Lys-OH]
topoisomerase II enzyme inhibition ([1]; 0.01 μg/ml to 10 μg/ml): no topoisomerase II enzyme inhibition
topoisomerase II enzyme inhibition ([1]; 100 μg/ml): some extent of inhibition
topoisomerase II enzyme inhibition ([1]; 1 mg/ml, highest tested concentration): better inhibition
inhibition at 10 μg/mL [2]: < 20%
inhibition potential towards CYP1A2 as compared to others [2]: slightly higher potential
inhibition at 10 μg/mL [3]: < 20%
inhibition at 10 μg/mL [4]: < 20%
inhibition at 10 μg/mL [5]: < 20%
inhibition at 10 μg/mL [6]: < 20%
mutagenicity (gene mutations at histidine locus) [7]: non mutagenic
ear thickness (absolute, histopathology, ear punch biopsy) ([8]; IS217 (1.2 mg/kg) < MTX (1.5 mg/kg), p < 0.01): Decreased ear
edema and hyperkeratosis [8, 11]: IS217 decreased
inflammatory cytokines in ear homogenate (ELISA and histopathology score) IL-23, IL-6, TNF-α and MPO [8, 11]: IS217 decreased
inhibitory activity against TPA induced increase in ear thickness ([8]; IS217 alone (SC 1.2 mg/kg q.d. per Table 6)): 44.77%
effect in combination with MTX ([8]; TPA model combination study): good effect
absolute ear thickness ([8]; alone as well as in combination with standard drugs): significant reduction
API calculated on the anhydrous basis (OAB) ([9]; 5 ± 3° C., 1 M): 99.36%
Related substances (By HPLC), Any Max. Impurity ([9]; 5 ± 3° C., 1 M): 0.52%
Related substances (By HPLC), Total Impurity ([9]; 5 ± 3° C., 1 M): 0.63%
Solubility (Soluble in water) ([9]; 5 ± 3° C., 1 M): Complies
Water Content (By Karl Fischer-Titrator) ([9]; 5 ± 3° C., 1 M): 4.61% w/w
Appearance, change ([9]; 5 ± 3° C., 1st month): No change
Assessment of container closure system, change ([9]; 5 ± 3° C., 1st month): No change
Clarity of solution, change ([9]; 5 ± 3° C., 1st month): No change
Color of Solution, change ([9]; 5 ± 3° C., 1st month): No change
Color, change ([9]; 5 ± 3° C., 1st month): No change
Odor, change ([9]; 5 ± 3° C., 1st month): No change
API calculated on the anhydrous basis (OAB) ([9]; 5 ± 3° C., 2 M): 99.25%
Related substances (By HPLC), Any Max. Impurity ([9]; 5 ± 3° C., 2 M): 0.53%
Related substances (By HPLC), Total Impurity ([9]; 5 ± 3° C., 2 M): 0.76%
Solubility (Soluble in water) ([9]; 5 ± 3° C., 2 M): Complies
Water Content (By Karl Fischer-Titrator) ([9]; 5 ± 3° C., 2 M): 4.55% w/w
Appearance, change ([9]; 5 ± 3° C., 2nd month): No change
Assessment of container closure system, change ([9]; 5 ± 3° C., 2nd month): No change
Clarity of solution, change ([9]; 5 ± 3° C., 2nd month): No change
Color of Solution, change ([9]; 5 ± 3° C., 2nd month): No change
Color, change ([9]; 5 ± 3° C., 2nd month): No change
Odor, change ([9]; 5 ± 3° C., 2nd month): No change
API calculated on the anhydrous basis (OAB) ([9]; 5 ± 3° C., 3 M): 99.06%
Related substances (By HPLC), Any Max. Impurity ([9]; 5 ± 3° C., 3 M): 0.59%
Related substances (By HPLC), Total Impurity ([9]; 5 ± 3° C., 3 M): 0.94%
Solubility (Soluble in water) ([9]; 5 ± 3° C., 3 M): Complies
Water Content (By Karl Fischer-Titrator) ([9]; 5 ± 3° C., 3 M): 4.60% w/w
Appearance, change ([9]; 5 ± 3° C., 3rd month): No change
Assessment of container closure system, change ([9]; 5 ± 3° C., 3rd month): No change
Clarity of solution, change ([9]; 5 ± 3° C., 3rd month): No change
Color of Solution, change ([9]; 5 ± 3° C., 3rd month): No change
Color, change ([9]; 5 ± 3° C., 3rd month): No change
Odor, change ([9]; 5 ± 3° C., 3rd month): No change
API calculated on the anhydrous basis (OAB) ([9]; 5 ± 3° C., 6 M): 99.22%
Related substances (By HPLC), Any Max. Impurity ([9]; 5 ± 3° C., 6 M): 0.43%
Related substances (By HPLC), Total Impurity ([9]; 5 ± 3° C., 6 M): 0.78%
Solubility (Soluble in water) ([9]; 5 ± 3° C., 6 M): Complies
Water Content (By Karl Fischer-Titrator) ([9]; 5 ± 3° C., 6 M): 4.62% w/w
Appearance, change ([9]; 5 ± 3° C., 6th month): No change
Assessment of container closure system, change ([9]; 5 ± 3° C., 6th month): No change
Clarity of solution, change ([9]; 5 ± 3° C., 6th month): No change
Color of Solution, change ([9]; 5 ± 3° C., 6th month): No change
Color, change ([9]; 5 ± 3° C., 6th month): No change
Odor, change ([9]; 5 ± 3° C., 6th month): No change
API calculated on the anhydrous basis (OAB) ([9]; 5 ± 3° C., Initial): 99.28%
Related substances (By HPLC), Any Max. Impurity ([9]; 5 ± 3° C., Initial): 0.60%
Related substances (By HPLC), Total Impurity ([9]; 5 ± 3° C., Initial): 0.72%
Remark ([9]; 5 ± 3° C., Initial): Complies
Solubility (Soluble in water) ([9]; 5 ± 3° C., Initial): Complies
Water Content (By Karl Fischer-Titrator) ([9]; 5 ± 3° C., Initial): 4.66% w/w
stability of IS217 API ([9]; 6 months at accelerated condition 5 ± 3° C.): stable
stability of drug substance ([9]; refrigerator (5 ± 3° C.) conditions for 24 months, concluded from Tables 13 to 16): stable
fraction unbound at 1 hour, 100 μg/ml [10]: 0.466
fraction unbound at 1 hour, 100 μg/ml ([10]; free fraction): 0.466 ± 0.03
